The test system of this assay is Wistar rats. The assay can be described thus: Control of essential hypertension in Wistar rats (testosterone propionate-induced blood pressure elevation). Type of assay: in vivo, rat.

Description: Unless otherwise specified, all compositions of interest were administered to the animals by intragastric feeding.
To test the ability of the activated yeast compositions to reduce blood pressure, thirty-two healthy Wistar rats of average weight of about 200±20 g (8-10 months old, half of them male and the other half female) were randomly divided into four equal groups, Groups A, B, C and D. Blood pressure of each rat was measured with a manometer for three consecutive days. After three days, each rat was subcutaneously injected with 4 mg of testosterone propionate in 0.4 ml of sesame oil per day for fourteen consecutive days.
A composition of interest (2 ml/kg/day) was then administered to each rat for sixteen consecutive days, while their blood pressure level was monitored every four days. Rats in Groups A, B, C and D received distilled water, reserpine, the activated yeast composition and the control yeast composition, respectively.

With `COC(=O)[C@H]1[C@H]2C[C@@H]3c4[nH]c5cc(OC)ccc5c4CCN3C[C@H]2C[C@@H](OC(=O)c2cc(OC)c(OC)c(OC)c2)[C@@H]1OC` [reserpine], the “Blood Pressure After Administration of a Composition” value (Wistar rats made hypertensive with 4 mg/day s.c. testosterone propionate for 14 days, composition 2 ml/kg/day intragastric for sixteen consecutive days) stood at 15.3 ± 0.89 kPa. In addition, the “Change in Blood Pressure (Value in Col. 3 − Value in Col. 2)” value (after administration of composition vs after testosterone injection, 2 ml/kg/day intragastric, 16 days) turned out to be 1.4 ± 0.33 kPa.
